From US4677105A, “2-alkoxycarbonylalkyl-3-oxo-5,6-diaryl-as-triazines having utility as therapeutics” (PF Medicament, priority 1985, dated 1987)
Like-named read-outs stand apart in the source and are kept apart here.

Legend:
[1] = test system: phenyl benzoquinone contortion; test: phenyl benzoquinone contortion test (analgesic properties); type: in vivo, mouse; conditions: 0.5 h
Method: The activity in the phenyl benzoquinone contortion test of […] et al., J. Pharm. Exptl. […] Dose expressed in mg/kg in the mouse, 30 minutes before intraperitoneal injection of the algogenic agent. The results are expressed in percentage variation of the number of contortions.

solubility = type: physicochemical; conditions: in words
[2] = analgesic activity, test not specified; type: in vivo; conditions: in words
[3] = mouse, oral, 30 minutes before intraperitoneal injection of the algogenic agent, read-out: ED50

SMILES | ED50 ([1]; Mus musculus, po) [mg/kg] | solubility (insoluble in) (solubility) | solubility (soluble in) (solubility) | ED50 [1, 3] [mg/kg] | analgesic activity [2]
CC(=O)Oc1ccccc1C(=O)O [Aspirin, reference compound] | 100 | – | – | – | –
CCOC(=O)Cn1nc(-c2ccc(OC)cc2)c(-c2ccc(OC)cc2)nc1=O [Example 1, 2-ethoxy carbonyl-methyl-3-oxo-5,6-di(paramethoxyphenyl)-as-triazine] | – | Insoluble in water, dilute bases and acids | Soluble in methylene chloride, chloroform, ether; alcohols and hot benzene | – | –
CCOC(=O)C(C)n1nc(-c2ccc(O)cc2)c(-c2ccc(O)cc2)nc1=O (centres unmarked) [Example 2, 2-(1-ethoxycarbonyl-1-ethyl)-3-oxo-5,6-di(parahydroxyphenyl)-as-triazine] | – | Insoluble in water, dilute bases and acids, benzene, chloroform, methylene chloride, ether | Soluble in hot alcohols | – | –
CCOC(=O)C(C)n1nc(-c2ccc(OC)cc2)c(-c2ccc(OC)cc2)nc1=O (centres unmarked) [Example 3, 2-(1-ethoxycarbonyl-1-ethyl)-3-oxo-5,6-di(paramethoxyphenyl)-as-triazine] | – | Insoluble in water, dilute bases and acids | Soluble in hot alcohols, benzene, chloroform, methylene chloride and ether | 13 | –
CCOC(=O)C(CC)n1nc(-c2ccc(OC)cc2)c(-c2ccc(OC)cc2)nc1=O (centres unmarked) [Example 4, 2-(1-ethoxycarbonyl-1-propyl)-3-oxo-5,6-di(paramethoxyphenyl)-as-triazine] | – | Insoluble in water, dilute bases and acids, ether | Soluble in hot alcohols, benzene, methylene chloride, chloroform | 11 | –
CCCC(C(=O)OCC)n1nc(-c2ccc(OC)cc2)c(-c2ccc(OC)cc2)nc1=O (centres unmarked) [Example 5, 2-(1-ethoxycarbonyl-1-butyl)-3-oxo-5,6-di(paramethoxyphenyl)-as-triazine] | – | Insoluble in water, dilute bases and acids | Soluble in hot alcohols, benzene, methylene chloride, chloroform, ether | 16 | –
COC(=O)C(C)n1nc(-c2ccc(OC)cc2)c(-c2ccc(OC)cc2)nc1=O (centres unmarked) [Example 6, 2-(1-methoxycarbonylethyl)-3-oxo-5,6-di(paramethoxyphenyl)-as-triazine] | – | Insoluble: Water, ether | Soluble in hot alcohols | 12 | –
CCOC(=O)C(C)n1nc(-c2ccccc2)c(-c2ccccc2)nc1=O (centres unmarked) [Example 7, 2-(1-ethoxycarbonyl-1-ethyl)-3-oxo-5,6-di (phenyl)-as-triazine] | – | – | – | 18 | effective analgesic agent
CCOC(=O)C(C)n1nc(-c2ccc(C)cc2)c(-c2ccc(C)cc2)nc1=O (centres unmarked) [Example 8, 2-(1-ethoxycarbonyl-1-ethyl)-3-oxo-5,6-di(p-methylphenyl)-as-triazine] | – | – | – | 12 | effective analgesic agent
CCOC(=O)C(C)n1nc(-c2ccc(Cl)cc2)c(-c2ccc(Cl)cc2)nc1=O (centres unmarked) [Example 9, 2-(1-ethoxycarbonyl-1-ethyl)-3-oxo-5,6-di (p-chlorophenyl)-as-triazine] | – | – | – | 10 | effective analgesic agent
CCOC(=O)C(C)n1nc(-c2ccc(OC)cc2)c(-c2ccc(Cl)cc2)nc1=O (centres unmarked) [Example 10, 2-(1-ethoxycarbonyl-1-ethyl)-3-oxo-5,6-(p-chloro-p-methoxy)-5,6-as-triazine] | – | – | – | 12 | effective analgesic agent
O=C(OCC(O)CO)c1ccccc1Nc1ccnc2cc(Cl)ccc12 (centres unmarked) [Glaphenine, reference compound] | – | – | – | 35 | –
